Common to all, as to test: NCI-60 cell line screen, 48 h
Assay [1] deals with OVCAR-8 ovarian.
Assay [2] concerns SK-OV-3 ovarian.
For assay [3], the system named is NCI-H460 lung.
Assay [4] relates to MALME-3M melanoma.
The test system of assay [5] is SNB-75 CNS.
For assay [6], the system named is A549 NSCLC.
The test system of assay [7] is SNB-19 CNS.
For assay [8], the system named is HCC-2998 colon.
The subject of assay [9] is M14 melanoma.
Assay [10] has as its system EKVX NSCLC.

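These data come from cells grown in 96-well plates and exposed to compound for 48 hours at five concentrations. The concentration for 50% growth inhibition is given as GI50. TGI marks complete inhibition of growth.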

As to `C1C[OH+]CC[OH+]CCNCC[OH+]CC[OH+]CCN1.N.[Cl-].[Pt+4]`, the GI50 in assay [1] is 17 µM; in assay [2], 15.1 µM; in assay [3], 1.81 µM; in assay [4], 3.14 µM; in [5], 3.59 µM; in [6], 15.4 µM. Besides, the results for the GI50 in assay [7], in [8] and in [9] were 7.22 µM, 13.5 µM and 5.31 µM, respectively. The TGI is over 100 µM in assay [1]; 60.9 µM in assay [2]; 63.9 µM in assay [3]; 18.3 µM in assay [4]; 20.2 µM in assay [5]; over 100 µM in assay [6]. Besides, the TGI in assay [7] came to 62.6 µM; in assay [8], 32.6 µM; in assay [9], 23.6 µM.
For `CCCCCCCCCCCCCCCCN1CC2CCCCC2C1` (stereo not drawn), the GI50 is 4.18 µM in assay [1]; 12.5 µM in assay [2]; over 100 µM in [3]; 16.9 µM in [4]; 4.09 µM in assay [6]; 7 µM in assay [7]. Further, the GI50 in assay [8] is 2.17 µM; in assay [10], 9.19 µM; in assay [9], 2.93 µM. In addition, the TGI in [1] is 17.6 µM; in assay [2], 29.7 µM; in assay [3] it was over 100 µM; in [4], 35.3 µM; in assay [6] it was 17 µM; in assay [7], 27.7 µM. Moreover, the TGI in [8] amounted to 5.44 µM; in assay [10], 21.8 µM; in assay [9], 9.22 µM.
In the case of `CCCCCCCCCCC(C(=O)O)C1(C(=O)O)CCC(=O)O1` (stereo not drawn), the TGI in assay [1], in assay [2], in assay [3], in [5], in [6] and in assay [7] was over 100 µM each time. The TGI in assay [8], in assay [10] and in [9] was over 100 µM each time.
As to `Oc1cccc2ccc(N/N=C/c3cc(CN4CCCCC4)c(O)c4ncccc34)nc12`, the GI50 is 0.0508 µM in assay [1]; 0.0435 µM in assay [2]; 0.0386 µM in assay [3]; 0.223 µM in assay [4]; 0.0365 µM in assay [6]; 0.0413 µM in assay [7]. The results for the GI50 in [8] and in assay [10] were 0.0499 µM and 0.299 µM, respectively. Also, the TGI in assay [1] is 2.06 µM; in assay [2] it was 0.653 µM; in assay [3] it was 1.67 µM; in assay [4] it was 4.49 µM; in [6], 1.15 µM; in [7], 18.7 µM. Also, the TGI in assay [8] was 1.76 µM; in assay [10] it was 14.7 µM.
`COc1ccc(/C=C(/C#N)C(N)=O)cc1OC`: the TGI in assay [1], in assay [2], in [3], in assay [4], in [5] and in assay [6] was over 100 µM in each case. Besides, the TGI in assay [7], in assay [10] and in assay [9] was over 100 µM throughout.
For `O=C(/C=C/c1ccccc1)c1cc(Br)ccc1O`, the TGI in assay [1] was 30.4 µM; in assay [2], 38.1 µM; in assay [3] it was 33.7 µM; in assay [5] it was 28.9 µM; in [6], 52.2 µM; in assay [7], 35.8 µM. The figures for the TGI in assay [8], in assay [10] and in assay [9] were 32.2 µM, 27.6 µM and 52.9 µM, respectively.
As for `COc1ccc(-c2ccc(/C=N/n3c(COc4ccc(Cl)cc4Cl)nn(CN4CCOCC4)c3=S)o2)c([N+](=O)[O-])c1`, the GI50 in [2] was 10.8 µM; in assay [3], 25.6 µM; in assay [4] it was 24.6 µM; in assay [6] it was 24.1 µM; in assay [7], 28.7 µM; in [8], 22.7 µM. In addition, the GI50 in [10] is over 100 µM; in [9], 26 µM. Moreover, the TGI in [2] is 52.1 µM; in assay [3], over 100 µM; in assay [4], 52.7 µM; in assay [6], over 100 µM; in assay [7] it was over 100 µM; in [8], 60.2 µM. The TGI in assay [10] is over 100 µM; in assay [9], 72.6 µM.
With `CCN(CC)c1ccc(C(=O)c2ccccc2C(=O)O)c(O)c1`, the TGI in [1], in assay [2], in assay [3], in assay [4], in [5] and in assay [6] was over 100 µM each time. Also, the TGI in assay [7], in assay [10] and in assay [9] was over 100 µM throughout.
As for `O=C1/C(=C\c2c[nH]c3ccccc23)c2ccccc2N1c1c(Cl)cccc1Cl`, the GI50 in assay [1] is 3.26 µM; in assay [2] it was 2.13 µM; in assay [3] it was 1.66 µM; in assay [5] it was 1.68 µM; in assay [6], 2.62 µM; in [7], 2.77 µM. Further, the GI50 in assay [8] is 1.7 µM; in assay [10], 1.63 µM. For the same molecule, the TGI in assay [1] amounted to 11.2 µM; in assay [2], 5.27 µM; in assay [3], 3.37 µM; in assay [5] it was 5.61 µM; in [6], 7.79 µM; in assay [7], 13.5 µM. For the same molecule, the TGI was determined as 3.12 µM in assay [8] and 4.91 µM in [10].
For the molecule `CCCCCCCCN=C(N)c1ccc(N2CCN(c3ccc(C(N)=NCCCCCCCC)cc3)CC2)cc1`, the GI50 is 1.49 µM in assay [1]; 1.76 µM in [2]; 1.63 µM in assay [3]; 1.67 µM in [6]; 2.16 µM in [7]; 2.06 µM in [8]. For the same molecule, the values for the GI50 in assay [10] and in assay [9] were 1.55 µM and 1.76 µM, respectively. Further, the TGI was 6.65 µM in assay [1]; 10.2 µM in [2]; over 50 µM in assay [3]; 9.08 µM in [6]; 14.6 µM in [7]; 8.79 µM in [8]. Moreover, the TGI in assay [10] stood at 8.75 µM; in assay [9] it was 6.68 µM.
For `COc1ccc(-c2n/c(=C\c3c(O)[nH]c4ccc(OC)cc34)cc3c2=Nc2ccccc2-3)cc1`, the GI50 in assay [2] is 22.5 µM; in assay [5], 1.55 µM; in assay [6], 3.43 µM; in [7], 3.88 µM; in [8] it was 2.93 µM; in [10] it was 21.2 µM. Moreover, the GI50 in [9] was 1.98 µM. Also, the TGI in assay [2] was 46.6 µM; in assay [5], 2.99 µM; in [6] it was 66.2 µM; in [7] it was over 100 µM; in assay [8], 10.1 µM; in assay [10] it was 72.9 µM. Also, in assay [9], the TGI was 3.59 µM.
On to `CCCCC(CC)CN=C(N)NC(N)=NCCCCCCN=C(N)NC(N)=NCC(CC)CCCC` (stereo not drawn), for which the GI50 was 2.08 µM in [1], 2.64 µM in assay [2], 1.74 µM in assay [10] and 2.49 µM in assay [9]. Also, the TGI in [1] worked out at 5.19 µM; in [2], 6.86 µM; in assay [10], 4.73 µM; in assay [9] it was 6.03 µM.
With `COc1ccc(OC)c(/C=C2\SC(=S)NC2=O)c1`, the GI50 in assay [1] is 30.5 µM; in assay [2], 33.1 µM; in [3], 32.6 µM; in assay [4], 34.6 µM; in assay [5] it was 29.3 µM; in assay [6] it was 26 µM. Also, the values for the GI50 in [7], in [10] and in assay [9] were 79.8 µM, 14.2 µM and 30.7 µM, respectively. The TGI in assay [1] is over 100 µM; in assay [2], over 100 µM; in assay [3] it was over 100 µM; in assay [4], 92.8 µM; in assay [5] it was over 100 µM; in [6] it was 89.9 µM. Besides, the TGI in assay [7] is over 100 µM; in assay [10], 42.1 µM; in [9], over 100 µM.
For the molecule `Cc1ccc(-c2cn3ccnc3c(-c3ccc(Cl)cc3)n2)cc1`, the GI50 in assay [1] was 1.43 µM; in assay [2] it was 0.714 µM; in assay [3], 0.0916 µM; in assay [5] it was 0.465 µM; in assay [6], 1.33 µM; in assay [7], 1.39 µM. Further, the GI50 is 2.13 µM in assay [8], 0.543 µM in [10] and 0.416 µM in assay [9]. The TGI in [1] was 34.2 µM; in [2] it was over 94 µM; in assay [3], 13.1 µM; in assay [5] it was 24.5 µM; in [6], over 49.8 µM; in assay [7], over 65.4 µM. Besides, the TGI was 11.4 µM in assay [8], over 100 µM in assay [10] and over 36.3 µM in assay [9].
Regarding `CC1=C(Oc2ccccc2)C(CCC(=O)O)c2c(O)cc(Cl)c(O)c21` (stereo not drawn), the TGI in [1], in assay [3], in assay [6], in [7], in [8] and in assay [10] was over 100 µM each time. The same molecule displayed a TGI in assay [9] of over 100 µM.
For `Cc1ccccc1[P+](Cc1ccccc1)(c1ccccc1)c1ccccc1`, the GI50 in assay [1] is 1.92 µM; in assay [2], 5.28 µM; in assay [3], 2.23 µM; in assay [5] it was 2.14 µM; in assay [6], 3.07 µM; in [7], 2.8 µM. Besides, the GI50 in [8] is 2.06 µM; in assay [9], 2.51 µM. Moreover, the TGI is 13.2 µM in assay [1]; over 100 µM in assay [2]; 10.7 µM in assay [3]; 20.2 µM in assay [5]; over 100 µM in assay [6]; over 100 µM in [7]. Also, the TGI came to 23.2 µM in [8] and 12.6 µM in assay [9].
On to `O=C1CC(c2ccc(O)cc2)C2(O1)C(=O)OC(C(O)CO)C2O` (stereo not drawn), for which the TGI in assay [1], in assay [2], in assay [4], in assay [5], in assay [7] and in [10] was over 100 µM throughout. The molecule further came in with a TGI in assay [9] of over 100 µM.
In the case of `Cc1ccc(N=Cc2ccc3c(c2)OCO3)cc1C`, the TGI in assay [1], in assay [2], in [3], in [4], in [5] and in assay [6] was over 100 µM each time. For the same molecule, the TGI in assay [7], in assay [10] and in assay [9] was over 100 µM each time.
For `CCOc1ccc(NC(=O)C(=O)CC(=O)C2=C(C)Nc3ccccc3S2)cc1`, the TGI in assay [1], in [2], in [3], in [4], in [6] and in [7] was over 50 µM in each case. For the same molecule, the TGI in assay [8], in assay [10] and in assay [9] was over 50 µM each time.
On to `NCCOCCOCCNc1nc(Cc2ccccc2)nc(NCCCN2CCCC2=O)n1`, for which the GI50 in assay [1], in [2], in assay [3], in assay [4], in assay [5] and in assay [6] was over 100 µM in each case. For the same molecule, the GI50 in assay [8] and in assay [9] was over 100 µM each time. Further, the TGI in [1], in [2], in assay [3], in [4], in assay [5] and in [6] was over 100 µM throughout. For the same molecule, the TGI in assay [8] and in assay [9] was over 100 µM throughout.
With `COc1cc(OC(C)=O)cc2c(OC(C)=O)ccc(OC(C)=O)c12`, the TGI in assay [1], in [3], in assay [6], in [7], in assay [10] and in assay [9] was over 100 µM in each case.
`C[C@@H]1C[C@H]2CC[C@H](O2)[C@H](C)C(=O)O[C@@H](C)C[C@@H]2CC[C@@H](O2)[C@@H](C)C(=O)O[C@H](C)C[C@H]2CC[C@H](O2)[C@H](C)C(=O)O[C@@H](C)C[C@@H]2CC[C@@H](O2)[C@@H](C)C(=O)O1`: the TGI in assay [1] was over 44.6 µM; in assay [2], 0.567 µM; in assay [3], over 100 µM; in assay [4] it was 2.67 µM; in [6] it was over 100 µM; in assay [7] it was over 100 µM. Further, the results for the TGI in [8], in assay [10] and in [9] were over 27.8 µM, over 100 µM and over 85 µM, respectively.

Values taken from PubChem BioAssay (NCI).
